Reference: US20230265098A1, “ALKYNE QUINAZOLINE DERIVATIVES AS INHIBITORS OF ERBB2” (EnLiven Therapeutics, Inc., priority 2020, published 2023)

What was measured:
A431 cells = assay: Cell viability assay (CellTiter Glo); type: cell-based; settings: Homo sapiens, A-431; 72 hours; 1500 cells per well, 384-well; DMEM + 10% FBS
Description: (§1) Cells were treated with compounds, and cell viability was measured as a metric of kinase inhibition.
(§2) The Ba/F3 cell line is IL-3-dependent mouse cell line derived from the C3H mouse strain. Ba/F3 cell lines were engineered to express human ERBB2 or EGFR kinases, rendering the cells IL-3 independent. The lines were generated via retroviral transduction utilizing a Moloney murine leukemia virus (MMLV) promoter, and constructs are stably integrated into the cell genome.
(§3) Similarly, Ba/F3 cell lines engineered to express EGFR, ERBB2, or ERBB2 mutants were grown, harvested, counted and seeded at 3000 cells per well in 96-well plates for the data sets shown in Tables B3-B4, and seeded at 300 cells per well in 384-well plates for the data set shown in Table B5. A subset of wells contained media only (low control, “LC”).
(§4) Table B2 provides the growth media and number of cells seeded per well for the each cell line.
(§5) Compounds were dissolved in DMSO and serially diluted. Serially-diluted compound or a DMSO only control (high control, “HC”) was added to the plated cells in each well. […] The final proportion of DMSO never exceeded 0.1%.
(§6) Plates were placed in a 37° C., 5% CO2 incubator for 72 hours. Plates were then removed from the incubator and equilibrated for 15 minutes at room temperature. 40 IA of CellTiter Glo reagent (Promega) was added to measure the relative level of metabolically active cells by quantifying intracellular ATP concentrations. Plates were incubated for 30 minutes at room temperature, and luminescence was measured. Percent viability was normalized to a vehicle control only using the following formula: % viability=100×(LumSample−LumLC) (LumHC−LumLC). Graphical curves were fitted using a nonlinear regression model with a sigmoidal dose response.

BT-474 cells = assay: Cell viability assay (CellTiter Glo); type: cell-based; settings: Homo sapiens, 72 hours, 2000 cells per well, 384-well, DMEM + 10% FBS
Description: as §1, §2, §3, §4, §5, §6

MDA-MB-175VII cells = assay: Cell viability assay (CellTiter Glo); type: cell-based; settings: Homo sapiens, 72 hours, 2000 cells per well, 384-well, RPMI + 10% FBS
Description: as §1, §2, §3, §4, §5, §6

[1] = molecular target: T1, Ba/F3 ERBB2 A775_G776insYVMA (Homo sapiens, UniProt P04626, DUP772-775, cells depend on it); assay: Cell viability assay (CellTiter Glo); type: cell-based, mouse; settings: 72 hours; 3000 cells per well, 96-well plates (Tables B3-B4); read-out: Cell viability IC50, nM, Ba/F3 ERBB2 A775_G776insYVMA
T1 construct: Ba/F3 cell lines were engineered to express human ERBB2 or EGFR kinases, rendering the cells IL-3 independent
In short: (§7)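 Murine Ba/F3 cells made IL-3-independent by retroviral human EGFR or ERBB2 were seeded at 3000 or 300 cells per well and exposed to serially diluted compound (DMSO ≤0.1%) for 72 hours at 37° C, 5% CO2. CellTiter Glo luminescence was normalised to DMSO and media-only controls and fitted to a sigmoidal dose-response.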

Ba/F3 ERBB2 wt = molecular target: T2, Ba/F3 ERBB2 wt (Homo sapiens, UniProt P04626); assay: Cell viability assay (CellTiter Glo); type: cell-based, mouse; settings: 72 hours; 3000 cells per well, 96-well plates; read-out: Cell viability IC50, nM, Ba/F3 ERBB2 wt
T2 construct: Ba/F3 cell lines were engineered to express human ERBB2 or EGFR kinases, rendering the cells IL-3 independent
In short: as §7

Ba/F3 ERBB2-G776VC = molecular target: T3, Ba/F3 ERBB2-G776VC (Homo sapiens, UniProt P04626, DELINS776-776VC, cells depend on it); assay: Cell viability assay (CellTiter Glo); type: cell-based, mouse; settings: 72 hours; 3000 cells per well, 96-well plates; read-out: Cell viability IC50, nM, Ba/F3 ERBB2-G776VC
T3 construct: Ba/F3 cell lines were engineered to express human ERBB2 or EGFR kinases, rendering the cells IL-3 independent
In short: as §7

Ba/F3 ERBB2-L755S = molecular target: T4, Ba/F3 ERBB2-L755S (Homo sapiens, UniProt P04626, L755S, cells depend on it); assay: Cell viability assay (CellTiter Glo); type: cell-based, mouse; settings: 72 hours; 3000 cells per well, 96-well plates; read-out: Cell viability IC50, nM, Ba/F3 ERBB2-L755S
T4 construct: Ba/F3 cell lines were engineered to express human ERBB2 or EGFR kinases, rendering the cells IL-3 independent
In short: as §7

Ba/F3 ERBB2-L869R = molecular target: T5, Ba/F3 ERBB2-L869R (Homo sapiens, UniProt P04626, L869R, cells depend on it); assay: Cell viability assay (CellTiter Glo); type: cell-based, mouse; settings: 72 hours; 3000 cells per well, 96-well plates; read-out: Cell viability IC50, nM, Ba/F3 ERBB2-L869R
T5 construct: Ba/F3 cell lines were engineered to express human ERBB2 or EGFR kinases, rendering the cells IL-3 independent
In short: as §7

Ba/F3 ERBB2-T798M = molecular target: T6, Ba/F3 ERBB2-T798M (Homo sapiens, UniProt P04626, T798M, cells depend on it); assay: Cell viability assay (CellTiter Glo); type: cell-based, mouse; settings: 72 hours; 3000 cells per well, 96-well plates; read-out: Cell viability IC50, nM, Ba/F3 ERBB2-T798M
T6 construct: Ba/F3 cell lines were engineered to express human ERBB2 or EGFR kinases, rendering the cells IL-3 independent
In short: as §7

Ba/F3 ERBB2-V777L = molecular target: T7, Ba/F3 ERBB2-V777L (Homo sapiens, UniProt P04626, V777L, cells depend on it); assay: Cell viability assay (CellTiter Glo); type: cell-based, mouse; settings: 72 hours; 3000 cells per well, 96-well plates; read-out: Cell viability IC50, nM, Ba/F3 ERBB2-V777L
T7 construct: Ba/F3 cell lines were engineered to express human ERBB2 or EGFR kinases, rendering the cells IL-3 independent
In short: as §7

[2] = molecular target: T8, Ba/F3 ERBB2-V777_G778insGC (Homo sapiens, UniProt P04626, INS778CG, cells depend on it); assay: Cell viability assay (CellTiter Glo); type: cell-based, mouse; settings: 72 hours; 3000 cells per well, 96-well plates; read-out: Cell viability IC50, nM, Ba/F3 ERBB2-V777_G778insGC
T8 construct: Ba/F3 cell lines were engineered to express human ERBB2 or EGFR kinases, rendering the cells IL-3 independent
In short: as §7

[3] = molecular target: T9, Ba/F3 ERBB2-P780_Y781insGSP (Homo sapiens, UniProt P04626, DUP778-780, cells depend on it); assay: Cell viability assay (CellTiter Glo); type: cell-based, mouse; settings: 72 hours; 3000 cells per well, 96-well plates; read-out: Cell viability IC50, nM, Ba/F3 ERBB2-P780_Y781insGSP
T9 construct: Ba/F3 cell lines were engineered to express human ERBB2 or EGFR kinases, rendering the cells IL-3 independent
Description: as §1, §2, §3, §4, §5
as §6, with “Percent viability was normalized to a vehicle control only using the following formula: % viability=100×(LumSample−LumLC) (LumHC−LumLC).” left out

[4] = molecular target: T10, phosphorylated ERBB2 (pERBB2) (Homo sapiens, UniProt P04626); assay: Detection of phosphorylated ERBB2 (pERBB2) by ELISA in BT-474 cells; type: cell-based; settings: four hours incubation with compound, OD 450 nm
T10 construct: endogenous in cells; host or cells: BT-474
In short: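 BT-474 cells were treated for 4 h at 37 °C with four-fold compound dilutions from 10 μM to 0.01 nM final, then lysed. Phospho-ERBB2 in the lysates was measured by ELISA with TMB read-out at 450 nm. Relative activity was normalised between cell-free wells and 0.1% DMSO-treated cells.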

T6 sequence (P04626 whole entry T798M): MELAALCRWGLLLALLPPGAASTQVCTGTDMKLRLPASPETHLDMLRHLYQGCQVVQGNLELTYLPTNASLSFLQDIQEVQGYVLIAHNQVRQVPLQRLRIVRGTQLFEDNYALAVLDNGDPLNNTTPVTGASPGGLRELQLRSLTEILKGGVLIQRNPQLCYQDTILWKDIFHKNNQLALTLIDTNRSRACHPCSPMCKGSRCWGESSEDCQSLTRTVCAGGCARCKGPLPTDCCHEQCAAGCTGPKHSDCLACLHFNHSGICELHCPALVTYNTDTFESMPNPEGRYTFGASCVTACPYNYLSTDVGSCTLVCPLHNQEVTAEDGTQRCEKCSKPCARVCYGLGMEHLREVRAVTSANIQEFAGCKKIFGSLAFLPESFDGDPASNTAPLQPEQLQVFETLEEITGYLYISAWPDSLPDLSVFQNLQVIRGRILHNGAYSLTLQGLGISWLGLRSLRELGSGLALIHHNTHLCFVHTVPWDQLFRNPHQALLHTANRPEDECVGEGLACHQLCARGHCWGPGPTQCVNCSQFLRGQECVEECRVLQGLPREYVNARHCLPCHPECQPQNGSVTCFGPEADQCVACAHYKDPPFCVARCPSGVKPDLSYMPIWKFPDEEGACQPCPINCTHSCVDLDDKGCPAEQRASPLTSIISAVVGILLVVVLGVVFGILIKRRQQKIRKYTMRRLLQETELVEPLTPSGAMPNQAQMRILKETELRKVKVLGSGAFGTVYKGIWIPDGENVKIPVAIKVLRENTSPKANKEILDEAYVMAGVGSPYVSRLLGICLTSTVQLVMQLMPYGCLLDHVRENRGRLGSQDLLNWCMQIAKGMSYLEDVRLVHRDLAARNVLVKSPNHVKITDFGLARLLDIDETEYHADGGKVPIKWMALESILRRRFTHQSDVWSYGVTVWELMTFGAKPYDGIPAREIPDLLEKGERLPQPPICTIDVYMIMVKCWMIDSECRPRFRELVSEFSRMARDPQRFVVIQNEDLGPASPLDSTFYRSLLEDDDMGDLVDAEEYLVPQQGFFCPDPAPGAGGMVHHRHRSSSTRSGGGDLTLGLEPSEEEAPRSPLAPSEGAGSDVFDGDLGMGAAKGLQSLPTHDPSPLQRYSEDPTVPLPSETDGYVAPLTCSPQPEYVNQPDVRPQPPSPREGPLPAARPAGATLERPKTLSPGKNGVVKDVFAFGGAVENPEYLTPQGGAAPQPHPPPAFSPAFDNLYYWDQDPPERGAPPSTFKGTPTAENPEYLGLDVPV
T1 sequence (P04626 with tags, fused parts or gaps DUP772-775): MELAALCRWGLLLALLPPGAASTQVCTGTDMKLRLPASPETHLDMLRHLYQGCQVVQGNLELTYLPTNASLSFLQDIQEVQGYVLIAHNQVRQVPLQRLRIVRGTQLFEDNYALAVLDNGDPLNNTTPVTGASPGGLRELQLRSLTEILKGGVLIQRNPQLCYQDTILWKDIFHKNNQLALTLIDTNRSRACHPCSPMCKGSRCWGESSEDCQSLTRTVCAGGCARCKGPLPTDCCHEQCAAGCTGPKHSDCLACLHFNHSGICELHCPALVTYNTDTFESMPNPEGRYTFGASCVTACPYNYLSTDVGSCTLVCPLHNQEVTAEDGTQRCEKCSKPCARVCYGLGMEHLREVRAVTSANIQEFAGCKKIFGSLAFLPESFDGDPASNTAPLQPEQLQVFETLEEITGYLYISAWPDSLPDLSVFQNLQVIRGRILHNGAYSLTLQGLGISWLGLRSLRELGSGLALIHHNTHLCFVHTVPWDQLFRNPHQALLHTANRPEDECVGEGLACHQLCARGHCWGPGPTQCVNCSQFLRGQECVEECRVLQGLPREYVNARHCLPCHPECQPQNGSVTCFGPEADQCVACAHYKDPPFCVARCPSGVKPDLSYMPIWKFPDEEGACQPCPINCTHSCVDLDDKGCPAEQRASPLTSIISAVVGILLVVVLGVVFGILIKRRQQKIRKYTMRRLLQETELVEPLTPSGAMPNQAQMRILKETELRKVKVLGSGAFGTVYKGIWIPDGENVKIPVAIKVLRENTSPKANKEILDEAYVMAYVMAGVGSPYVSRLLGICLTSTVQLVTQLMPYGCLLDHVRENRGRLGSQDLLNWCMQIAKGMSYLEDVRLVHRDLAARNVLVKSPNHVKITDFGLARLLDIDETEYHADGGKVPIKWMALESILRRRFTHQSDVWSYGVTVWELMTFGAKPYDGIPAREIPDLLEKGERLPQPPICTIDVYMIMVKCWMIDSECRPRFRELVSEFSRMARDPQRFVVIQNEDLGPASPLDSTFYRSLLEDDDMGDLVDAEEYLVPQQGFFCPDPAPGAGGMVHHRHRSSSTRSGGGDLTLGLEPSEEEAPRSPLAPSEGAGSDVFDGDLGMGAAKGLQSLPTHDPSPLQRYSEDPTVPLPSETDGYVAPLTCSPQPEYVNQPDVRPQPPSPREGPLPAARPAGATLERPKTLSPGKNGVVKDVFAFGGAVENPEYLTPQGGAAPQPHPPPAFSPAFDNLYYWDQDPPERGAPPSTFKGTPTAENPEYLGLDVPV
T8 sequence (P04626 with tags, fused parts or gaps INS778CG): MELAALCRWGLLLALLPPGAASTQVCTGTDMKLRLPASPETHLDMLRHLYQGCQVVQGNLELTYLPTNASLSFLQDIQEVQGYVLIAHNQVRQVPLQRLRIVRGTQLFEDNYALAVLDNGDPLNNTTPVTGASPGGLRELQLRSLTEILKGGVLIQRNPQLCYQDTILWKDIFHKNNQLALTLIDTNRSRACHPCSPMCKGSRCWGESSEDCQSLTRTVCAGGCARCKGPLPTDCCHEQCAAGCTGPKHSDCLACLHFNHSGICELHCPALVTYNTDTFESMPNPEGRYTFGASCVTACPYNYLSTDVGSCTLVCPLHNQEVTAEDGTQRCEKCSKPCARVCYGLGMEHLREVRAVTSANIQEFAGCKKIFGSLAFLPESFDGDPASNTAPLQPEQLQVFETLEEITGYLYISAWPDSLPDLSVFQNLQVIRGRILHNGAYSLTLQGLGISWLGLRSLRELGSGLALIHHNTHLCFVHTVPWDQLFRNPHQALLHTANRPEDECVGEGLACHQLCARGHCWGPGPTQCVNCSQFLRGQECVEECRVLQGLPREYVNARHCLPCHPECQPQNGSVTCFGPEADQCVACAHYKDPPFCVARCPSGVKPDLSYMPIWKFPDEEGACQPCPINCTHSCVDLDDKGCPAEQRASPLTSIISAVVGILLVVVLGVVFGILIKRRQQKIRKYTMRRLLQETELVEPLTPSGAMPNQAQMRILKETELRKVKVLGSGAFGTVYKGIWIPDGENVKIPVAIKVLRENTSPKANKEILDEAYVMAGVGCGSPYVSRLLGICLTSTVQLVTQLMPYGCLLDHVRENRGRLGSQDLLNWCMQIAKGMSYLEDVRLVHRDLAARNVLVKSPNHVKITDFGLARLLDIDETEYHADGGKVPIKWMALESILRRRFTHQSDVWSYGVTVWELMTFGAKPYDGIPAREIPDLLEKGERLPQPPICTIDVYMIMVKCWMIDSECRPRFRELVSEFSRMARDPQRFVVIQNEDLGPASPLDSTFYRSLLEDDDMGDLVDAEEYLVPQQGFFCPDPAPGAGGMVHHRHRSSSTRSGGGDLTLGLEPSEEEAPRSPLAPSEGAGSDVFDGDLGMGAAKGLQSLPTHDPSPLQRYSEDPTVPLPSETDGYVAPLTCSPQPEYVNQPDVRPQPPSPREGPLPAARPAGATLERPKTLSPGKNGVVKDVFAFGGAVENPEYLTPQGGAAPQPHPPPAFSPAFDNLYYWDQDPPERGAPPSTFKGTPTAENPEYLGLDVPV
T9 sequence (P04626 with tags, fused parts or gaps DUP778-780): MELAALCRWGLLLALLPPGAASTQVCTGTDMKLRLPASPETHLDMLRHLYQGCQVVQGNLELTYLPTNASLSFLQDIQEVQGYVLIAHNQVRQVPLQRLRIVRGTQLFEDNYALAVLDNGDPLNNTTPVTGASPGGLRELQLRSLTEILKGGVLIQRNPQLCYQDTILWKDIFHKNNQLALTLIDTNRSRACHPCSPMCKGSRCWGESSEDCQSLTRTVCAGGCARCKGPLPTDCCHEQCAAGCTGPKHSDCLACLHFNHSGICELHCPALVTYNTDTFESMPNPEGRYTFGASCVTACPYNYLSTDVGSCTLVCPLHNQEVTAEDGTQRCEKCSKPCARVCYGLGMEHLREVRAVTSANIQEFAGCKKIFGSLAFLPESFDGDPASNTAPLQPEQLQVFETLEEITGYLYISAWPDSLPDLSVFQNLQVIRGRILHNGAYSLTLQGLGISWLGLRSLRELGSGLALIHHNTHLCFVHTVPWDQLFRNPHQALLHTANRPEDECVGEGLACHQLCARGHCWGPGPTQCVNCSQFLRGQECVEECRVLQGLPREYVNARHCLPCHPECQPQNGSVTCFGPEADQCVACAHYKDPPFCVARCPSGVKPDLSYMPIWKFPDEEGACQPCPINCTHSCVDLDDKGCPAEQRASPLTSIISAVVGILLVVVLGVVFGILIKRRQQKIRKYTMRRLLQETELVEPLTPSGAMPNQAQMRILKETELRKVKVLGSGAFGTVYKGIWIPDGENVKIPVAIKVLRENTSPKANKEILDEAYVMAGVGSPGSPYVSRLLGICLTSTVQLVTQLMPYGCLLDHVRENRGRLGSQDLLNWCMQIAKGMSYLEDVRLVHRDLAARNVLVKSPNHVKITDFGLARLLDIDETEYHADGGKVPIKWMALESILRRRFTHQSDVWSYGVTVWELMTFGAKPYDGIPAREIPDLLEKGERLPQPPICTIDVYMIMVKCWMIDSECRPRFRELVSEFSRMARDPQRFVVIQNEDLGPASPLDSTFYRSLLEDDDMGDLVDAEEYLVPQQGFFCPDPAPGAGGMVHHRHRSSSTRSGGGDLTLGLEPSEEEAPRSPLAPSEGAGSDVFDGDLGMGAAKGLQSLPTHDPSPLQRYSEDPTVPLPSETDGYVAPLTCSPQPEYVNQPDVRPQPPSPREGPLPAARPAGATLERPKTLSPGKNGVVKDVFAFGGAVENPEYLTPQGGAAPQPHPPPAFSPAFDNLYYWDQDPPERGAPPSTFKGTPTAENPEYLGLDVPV

SMILES: CC#CC(=O)Nc1ccc2ncnc(Nc3ccc(Cc4ccn5ncnc5c4)cc3)c2c1 [Compound 14, N-[4-[(4-[[1,2,4]triazolo[1,5-a]pyridin-7-ylmethyl]phenyl)amino]quinazolin-6-yl]but-2-ynamide]
- IC50 (A431 cells): 3550 nM
- IC50 (BT-474 cells): 9.6 nM
- IC50 (MDA-MB-175VII cells): 30.4 nM
- GI50 [1]: 36 nM
- GI50 (Ba/F3 ERBB2 wt): 5.1 nM
- GI50 (Ba/F3 ERBB2-G776VC): 13 nM
- GI50 (Ba/F3 ERBB2-L755S): 25 nM
- GI50 (Ba/F3 ERBB2-L869R): 9.5 nM
- GI50 (Ba/F3 ERBB2-T798M): 482 nM
- GI50 (Ba/F3 ERBB2-V777L): 1.5 nM
- GI50 [2]: 4 nM
- GI50 [3]: 3.8 nM
- IC50 [4]: 14.3 nM
